Data: US7557110B2, “Pyrazolo[1,5-A] pyrimidine derivatives” (Teijin Pharma Limited, priority 2003, dated 2009)

Experiments:
[1] = biological target: CDK-2 (Homo sapiens, UniProt P24941); experiment: CDK-2 enzyme activity inhibition (33P-ATP filter plate kinase assay); format: biochemical; settings: read-out: CDK-2 inhibition IC50
Text: [General Procedure for Measurement of CDK-2 Enzyme Activity Inhibition]

[2] = biological target: MAPKAP-K2 (Homo sapiens, UniProt P49137); experiment: MAPKAP-K2 enzyme activity inhibition (33P-ATP filter plate kinase assay); format: biochemical; settings: MAPKAP-K2 inhibitory activity; assays conducted at typically 1-100 μM; also: key: +: active; ++: more active; +++: very active
Protocol: [General Procedure for Measurement of MAPKAP-K2 Enzyme Activity Inhibition]
After conducting the reaction for 30 minutes at room temperature, an equivalent volume of a 200 mM phosphoric acid solution was added to suspend the reaction, and 90 μL of the reaction product was adsorbed onto a MultiScreen PH plate (Millipore) and rinsed with a 100 mM phosphoric acid solution. After drying the plate, 30 μL of MicroScint-O (Packard BioScience) was added, and the cpm was measured with a scintillation counter to determine the inhibiting activity. Substrate peptide is […]

Chain of MAPKAP-K2 (P49137 whole entry): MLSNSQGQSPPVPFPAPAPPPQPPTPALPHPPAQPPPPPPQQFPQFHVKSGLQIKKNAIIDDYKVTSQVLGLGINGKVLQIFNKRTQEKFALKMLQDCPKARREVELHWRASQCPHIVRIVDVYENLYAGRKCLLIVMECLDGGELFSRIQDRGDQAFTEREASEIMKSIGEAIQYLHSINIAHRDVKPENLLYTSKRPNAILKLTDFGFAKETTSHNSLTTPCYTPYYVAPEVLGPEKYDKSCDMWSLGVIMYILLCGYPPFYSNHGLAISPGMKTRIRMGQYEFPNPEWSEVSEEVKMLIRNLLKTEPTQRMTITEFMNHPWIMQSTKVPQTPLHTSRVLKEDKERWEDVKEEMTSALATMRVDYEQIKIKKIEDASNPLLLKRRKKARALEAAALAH

| SMILES | melting point | IC50 [1] [µM] | activity (efficacy against MAPKAP-K2) [2] |
| --- | --- | --- | --- |
| Cc1c(N[C@H]2CC[C@H](N)CC2)nc2ccnn2c1Nc1cccc(CO)c1 [Compound 97] | 97 to 100 °C | < 100 | +++ |
| Cc1c(N[C@H]2CC[C@H](N)CC2)nc2ccnn2c1Nc1ccc2c(c1)OCCO2 [Compound 126] | 68 to 72 °C | < 100 | +++ |
| Cc1nn2c(Nc3ccc(F)c(Cl)c3)cc(N[C@H]3CC[C@H](N)CC3)nc2c1Br [Compound 6] | 224 to 226 °C (dec.) | < 100 |  |
| CCc1c(N[C@H]2CC[C@H](N)CC2)nc2ccnn2c1Nc1ccc(Oc2ccc(C)cc2)cc1 [Compound 57] | 102 to 104 °C | < 100 | +++ |
| Cc1c(N[C@H]2CC[C@H](N)CC2)nc2ccnn2c1Nc1cccc(O)c1 [Compound 88] | 145 to 150 °C | < 100 | +++ |
| Cc1c(N[C@H]2CC[C@H](N)CC2)nc2ccnn2c1Nc1ccc(N2CCCCC2)cc1 [Compound 129] | 58 to 66 °C | < 100 | +++ |
| CCOc1ccc(Nc2c(C)c(N[C@H]3CC[C@H](N)CC3)nc3c(CO)cnn23)cc1 [Compound 92] | 101 to 104 °C | < 100 |  |
| Cc1c(N[C@H]2CC[C@H](N)CC2)nc2ccnn2c1Nc1ccccc1 [Compound 102] | 96 to 99 °C | < 100 | +++ |
| Cc1c(N[C@H]2CC[C@H](N)CC2)nc2ccnn2c1Nc1ccc2ncsc2c1 [Compound 112] | 100 to 108 °C | < 100 | +++ |
| CC(C)c1c(N[C@H]2CC[C@H](N)CC2)nc2ccnn2c1Nc1ccc(F)c(Cl)c1 [Compound 115] | 165 to 168 °C | < 100 | +++ |
| CCc1c(N[C@H]2CC[C@H](N)CC2)nc2ccnn2c1Nc1cccc(I)c1 [Compound 60] | 199 to 201 °C | < 100 | +++ |
| CCc1c(N[C@H]2CC[C@H](N)CC2)nc2ccnn2c1NCc1ccccc1Cl [Compound 38] | 63 to 65 °C | < 100 | ++ |
| CCCCOc1ccc(Nc2c(CCCO)c(N[C@H]3CC[C@H](N)CC3)nc3ccnn23)cc1 [Compound 53] | 116 to 118 °C | < 100 | +++ |
| CCc1c(N[C@H]2CC[C@H](N)CC2)nc2ccnn2c1Nc1ccc(OC)c(OC)c1 [Compound 58] | 181 to 185 °C | < 100 | ++ |
| CCc1c(N[C@H]2CC[C@H](N)CC2)nc2ccnn2c1Nc1ccc(OC)c(Cl)c1 [Compound 55] | 189 to 192 °C | < 100 | +++ |
| CCc1c(N[C@H]2CC[C@H](N)CC2)nc2ccnn2c1Nc1cccc(C(N)=O)c1 [Compound 151] | 206 to 210 °C | < 100 | ++ |
| CCOc1cccc(Nc2c(CC)c(N[C@H]3CC[C@H](N)CC3)nc3ccnn23)c1 [Compound 61] | 150 to 152 °C | < 100 | +++ |
| C=C(C)CNc1c(CC)c(N[C@H]2CC[C@H](N)CC2)nc2ccnn12 [Compound 46] | 91 to 93 °C | < 100 | ++ |
| CCc1c(N[C@H]2CC[C@H](N)CC2)nc2ccnn2c1Nc1ccc(Br)cc1 [Compound 159] | 184 to 187 °C | < 100 | +++ |
| Cc1c(N[C@H]2CC[C@H](N)CC2)nc2ccnn2c1Nc1ccc(-n2ccnc2)cc1 [Compound 118] | 210 to 215 °C | < 100 | +++ |
| Cc1c(N[C@H]2CC[C@H](N)CC2)nc2ccnn2c1Nc1ccc(OCc2ccc(N)cc2)cc1 [Compound 204] |  | < 100 | ++ |
| Cc1c(N[C@H]2CC[C@H](N)CC2)nc2ccnn2c1Nc1ccc(-c2cccc(CO)c2)cc1 [Compound 353] |  | < 100 | +++ |
| Cc1c(NC2CCCNC2)nc2ccnn2c1Nc1ccc(I)cc1 (stereo not drawn) [Compound 105] |  | < 100 | +++ |
| Cc1c(N[C@H]2CC[C@H](N)CC2)nc2c(F)cnn2c1Nc1ccc(I)cc1 [Compound 441, {5-[(trans-4-aminocyclohexyl)amino]-3-fluoro-6-methyl(pyrazolo[1,5-a]pyrimidin-7-yl)}(4-iodophenyl)amine] |  | < 100 | +++ |
| Cc1c(N[C@H]2CC[C@H](N)CC2)nc2ccnn2c1Nc1ccc(OCC2CCCCC2)cc1 [Compound 237] |  | < 100 | ++ |
| COc1ccccc1-c1ccc(Nc2c(C)c(N[C@H]3CC[C@H](N)CC3)nc3ccnn23)cc1 [Compound 287] |  | < 100 | +++ |

| SMILES | melting point | IC50 [1] [µM] | activity (efficacy against MAPKAP-K2) [2] |
| --- | --- | --- | --- |
| Cc1c(N[C@H]2CC[C@H](N)CC2)nc2ccnn2c1Nc1ccc(-c2ccccc2C(F)(F)F)cc1 [Compound 323] |  | < 100 | ++ |
| Cc1c(N[C@H]2CC[C@H](N)CC2)nc2ccnn2c1Nc1ccc(-c2ccoc2)cc1 [Compound 309] |  | < 100 | +++ |
| Cc1c(N[C@H]2CC[C@H](N)CC2)nc2ccnn2c1Nc1ccc(O)cc1 [Compound 196] |  | < 100 | +++ |
| Cc1c(N[C@H]2CC[C@H](N)CC2)nc2ccnn2c1Nc1ccc(OC(F)(F)F)c(Cl)c1 [Compound 785] |  | < 100 | +++ |
| Cc1ccc(Nc2c(C)c(NC3CCCNC3)nc3ccnn23)cc1C (stereo not drawn) [Compound 89] |  | < 100 | +++ |
| Cc1c(N[C@H]2CC[C@H](N)CC2)nc2ccnn2c1Nc1ccc(OC2CCOCC2)cc1 [Compound 219] |  | < 100 | +++ |
| CC(=O)c1ccc(-c2ccc(Nc3c(C)c(N[C@H]4CC[C@H](N)CC4)nc4ccnn34)cc2)s1 [Compound 355] |  | < 100 | +++ |
| Cc1c(N[C@H]2CC[C@H](N)CC2)nc2ccnn2c1Nc1ccc(OC2CCCC2)cc1 [Compound 216] |  | < 100 | +++ |
| Cc1c(N[C@H]2CC[C@H](N)CC2)nc2ccnn2c1Nc1cccc(OCc2ccc(Cl)cc2)c1 [Compound 248] |  | < 100 | ++ |
| CCOc1ccc(Nc2c(C)c(N(CC)C3CCCNC3)nc3ccnn23)cc1 (stereo not drawn) [Compound 341] |  | < 100 | + |
| N[C@H]1CC[C@H](Nc2cc(Nc3ccccc3Cl)n3ncc(I)c3n2)CC1 [Compound 47] |  | < 100 | ++ |
| Cc1c(N[C@H]2CC[C@H](N)CC2)nc2c(C(=O)C(F)(F)F)cnn2c1Nc1ccc(I)cc1 [Compound 417, 1-{5-[(trans-4-aminocyclohexyl)amino]-7-[(4-iodophenyl)amino]-6-methyl(pyrazolo[1,5-a]pyrimidin-3-yl)}-2,2,2-trifluoroethan-1-one] |  | < 100 | + |
| CCOc1ccc(Nc2c(C(C)C)c(N[C@H]3CC[C@H](N)CC3)nc3ccnn23)cc1 [Compound 114] |  | < 100 | +++ |
| CCOc1ccc(-c2ccc(Nc3c(C)c(N[C@H]4CC[C@H](N)CC4)nc4ccnn34)cc2)cc1 [Compound 356] |  | < 100 | +++ |
| Cc1c(N[C@H]2CC[C@H](N)CC2)nc2ccnn2c1Nc1ccc(-c2ccc(F)cc2)cc1 [Compound 303] |  | < 100 | +++ |
| CCCCC(=O)c1cnn2c(Nc3ccc(OCC)cc3)c(C)c(N[C@H]3CC[C@H](N)CC3)nc12 [Compound 362] |  | < 100 | ++ |
| CCOC(=O)c1cccc(Nc2c(C)c(N[C@H]3CC[C@H](N)CC3)nc3ccnn23)c1 [Compound 68] |  | < 100 | +++ |
| Cc1c(N[C@H]2CC[C@H](N)CC2)nc2ccnn2c1Nc1ccc(OCCc2ccncc2)cc1 [Compound 228] |  | < 100 | +++ |
| CCOc1ccc(Nc2c(C)c(N[C@@H]3CCNC3)nc3ccnn23)cc1 [Compound 412] |  | < 100 | ++ |
| Cc1c(N[C@H]2CC[C@H](N)CC2)nc2ccnn2c1Nc1ccc(-c2cccc(F)c2)cc1 [Compound 304] |  | < 100 | +++ |
| Cc1c(N[C@H]2CC[C@H](N)CC2)nc2ccnn2c1Nc1cccc(OCc2cccnc2)c1 [Compound 274] |  | < 100 | ++ |
| CNC(=O)c1ccc(Nc2c(C)c(N[C@H]3CC[C@H](N)CC3)nc3ccnn23)cc1 [Compound 460] |  | < 100 | +++ |
| Cc1c(NC2CCC(N)CC2)nc2ccnn2c1Nc1ccc(OCC2CCCO2)cc1 (stereo not drawn) [Compound 256] |  | < 100 | +++ |
| Cc1c(NC2CCCNC2)nc2ccnn2c1Nc1ccc(-c2cccc(N)c2)cc1 (stereo not drawn) [Compound 444] |  | < 100 | +++ |
| CCOc1ccc(Nc2c(C)c(N[C@@H]3CN[C@@H](C(=O)O)C3)nc3ccnn23)cc1 [Compound 772] |  | < 100 | ++ |
